Like-named read-outs stand apart in the source and are kept apart here.
Key:
[1] = target: GluN1/GluN2B-ΔNTD receptors (Rattus norvegicus (GluN1); Mus musculus (GluN2B), UniProt P35439+Q01097); experiment: TEVC on Xenopus oocytes, GluN2B NTD-deleted receptors; type: cell-based; settings: for Relative current (IOpto/I0): GluN1/GluN2B-DeltaNTD
Text: We finally investigated the location of the OptoNAM-3 binding-site on the receptor. […] The binding site for GluN2B-selective antagonists at the GluN1/GluN2B NTD dimer interface contains two partially overlapping pockets that accommodate GluN2B-selective NAMs of distinct chemical scaffolds:[19] either scaffolds related to ifenprodil or scaffolds related to another GluN2B-selective NAM called EVT-101.[47]
(§1) We used cDNA coding for rat GluN1–1a (named GluN1 herein) (GenBank: U08261.1), rat GluN2A (GenBank: D13211.1), mouse GluN2B (GenBank: D10651.2), rat GluA1 flop (GenBank: M36418.2), and rat Myc-GluA2(Q)-flip (GenBank: AF164344.1) cloned into pcDNA3-based expression plasmids. GluK2 (GenBank: Z11548.1) corresponds to the fully RNA-edited version.[80] The GluN2B-ΔNTD construct is from ref[45] and GluN2B–N615K is from ref[81]. Single mutants GluN2B-Q110G and GluN1-L135H were from ref[19]. The GluA2 cDNA contains a Myc tag ([…]) fused between the signal peptide and the N-terminus sequences, and the GluA2 subunit is […] for its Q/R/N site (GluA2(Q)) to allow permeation of homomeric GluA2 receptors.[2] cDNAs coding for rat GluN2C (GenBank: M91563.1) and GluN2D subunits (GenBank: L31611.1) were in prK5 plasmids.
Expression of recombinant NMDA receptors was obtained by oocyte nuclear coinjection of 37 nL of a mixture of cDNAs (at 30 ng/μL) coding for GluN1–1a and various GluN2 subunits (ratio 1:1). The protocol in ref[43] was followed for the expression of GluN1/GluN2A/GluN2B triheteromers. The oocytes were transferred in 96-well plates filled with Barth solution (in mM: 88 NaCl, 1 KCl, 0.33 Ca(NO3)2, 0.41 CaCl2, 0.82 MgSO4, 2.4 NaHCO3, and 7.5 HEPES, pH adjusted to 7.3 with NaOH), supplemented with gentamicin ([…]) and 50 μM APV, a selective NMDA receptor antagonist. Plates were then stored at 18 °C for 24 h for GluN1/GluN2A expression and for 48––72 h for the expression of GluN1/Glu2B, GluN1/GluN2A/GluN2B, and mutants.
TEVC recordings were performed 1–3 days following injection. TEVC recordings were performed using an Oocyte Clamp amplifier OC-725 (Warner Instruments) and computer-controlled via a 1440A Digidata (Molecular Devices). Currents were sampled at 100 Hz and low-pass-filtered at 20 Hz using an 8-pole Bessel filter (900 Series, Frequency Devices Inc.). Data were collected with Clampfit 10.3. During the recording, the cells were continuously perfused with external recording Ringer solution at pH 7.3 (in mM: 100 NaCl, 0.3 BaCl2, 5 HEPES, and 2.5 KCl, pH adjustment to 7.3 by the addition of NaOH). The NMDA currents were induced by simultaneous application of L-glutamate and glycine (agonist solution) at saturating concentration (100 μM each), and DTPA (10 μM) to prevent receptor inhibition by ambient zinc (∼20 nM).[83] A control solution (100 μM glycine and 10 μM DTPA in Ringer pH 7.3) was used for washout of drug and test solutions. AMPA and kainate receptor currents were induced in the same conditions as NMDA currents (100 μM glutamate and glycine + 10 μM DTPA). Oocytes expressing GluK2 kainate receptors were treated with concanavalin A ([…], equivalent to 1.1 mg/mL) during 10 min before recording to decrease receptor desensitization. Unless notified, recordings were performed at a holding potential of −60 mV. All experiments were performed at room temperature.
OptoNAMs were diluted as stock solutions of 50 to 0.5 mM in DMSO. On the day of the experiment, they were diluted to the appropriate concentration in the recording solution and kept in the dark during the whole duration of the experiment to avoid photoconversion.

GluN1/GluN2A = target: T1, GluN1/GluN2A (Rattus norvegicus, UniProt P35439+Q00959); experiment: TEVC on Xenopus oocytes, GluN1/GluN2A diheteromers; type: cell-based; settings: 1 µM trans-OptoNAM-3 (dark); listed as trans-OptoNAM-3
T1 construct: expressed in transfected cells; host or cells: Xenopus laevis oocytes (nuclear cDNA injection)
Text: NMDARs exist as multiple subtypes in the brain that are formed by the combination of two GluN1 and either two identical (diheteromers) or different (triheteromers) GluN2 (GluN2A-D) subunits.[1] We assessed the selectivity of trans-OptoNAM-3 (dark PSS) for the other NMDAR subtypes.
as §1
Expression of recombinant NMDA receptors was obtained by oocyte nuclear coinjection of 37 nL of a mixture of cDNAs (at 30 ng/μL) coding for GluN1–1a and various GluN2 subunits (ratio 1:1). The protocol in ref[43] was followed for the expression of GluN1/GluN2A/GluN2B triheteromers. […]

Chain of GluN1/GluN2B-ΔNTD receptors (Q01097 395-1482, stated change not applied, other chains not shown): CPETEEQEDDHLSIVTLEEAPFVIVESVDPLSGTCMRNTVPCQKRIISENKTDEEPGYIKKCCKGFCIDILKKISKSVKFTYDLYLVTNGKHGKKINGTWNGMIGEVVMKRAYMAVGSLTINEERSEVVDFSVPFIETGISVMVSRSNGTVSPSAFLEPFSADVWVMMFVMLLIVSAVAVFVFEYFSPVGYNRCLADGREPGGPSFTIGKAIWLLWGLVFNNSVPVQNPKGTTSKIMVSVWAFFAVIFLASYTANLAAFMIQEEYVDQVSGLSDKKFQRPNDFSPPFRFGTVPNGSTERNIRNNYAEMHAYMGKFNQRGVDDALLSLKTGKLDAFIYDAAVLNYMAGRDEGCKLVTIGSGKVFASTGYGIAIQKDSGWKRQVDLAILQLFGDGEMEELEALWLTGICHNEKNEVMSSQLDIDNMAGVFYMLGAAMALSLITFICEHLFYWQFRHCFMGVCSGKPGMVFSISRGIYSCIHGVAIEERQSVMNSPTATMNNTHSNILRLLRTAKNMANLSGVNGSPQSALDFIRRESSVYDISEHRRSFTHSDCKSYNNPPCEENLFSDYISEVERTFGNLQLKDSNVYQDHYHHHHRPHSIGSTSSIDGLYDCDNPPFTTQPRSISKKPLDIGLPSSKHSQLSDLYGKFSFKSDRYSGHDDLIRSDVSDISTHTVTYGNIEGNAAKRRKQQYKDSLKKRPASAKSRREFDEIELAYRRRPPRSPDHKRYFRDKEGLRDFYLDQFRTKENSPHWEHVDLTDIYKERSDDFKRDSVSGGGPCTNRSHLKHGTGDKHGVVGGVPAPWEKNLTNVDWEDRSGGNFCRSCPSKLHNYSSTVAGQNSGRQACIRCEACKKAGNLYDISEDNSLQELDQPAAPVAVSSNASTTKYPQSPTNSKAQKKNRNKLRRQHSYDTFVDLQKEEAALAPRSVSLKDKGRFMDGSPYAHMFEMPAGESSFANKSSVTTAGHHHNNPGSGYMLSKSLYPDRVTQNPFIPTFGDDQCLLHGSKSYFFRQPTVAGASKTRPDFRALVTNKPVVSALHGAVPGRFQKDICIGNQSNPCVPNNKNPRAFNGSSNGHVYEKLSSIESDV
T1 sequence (Q00959 23-1464, other chains not shown): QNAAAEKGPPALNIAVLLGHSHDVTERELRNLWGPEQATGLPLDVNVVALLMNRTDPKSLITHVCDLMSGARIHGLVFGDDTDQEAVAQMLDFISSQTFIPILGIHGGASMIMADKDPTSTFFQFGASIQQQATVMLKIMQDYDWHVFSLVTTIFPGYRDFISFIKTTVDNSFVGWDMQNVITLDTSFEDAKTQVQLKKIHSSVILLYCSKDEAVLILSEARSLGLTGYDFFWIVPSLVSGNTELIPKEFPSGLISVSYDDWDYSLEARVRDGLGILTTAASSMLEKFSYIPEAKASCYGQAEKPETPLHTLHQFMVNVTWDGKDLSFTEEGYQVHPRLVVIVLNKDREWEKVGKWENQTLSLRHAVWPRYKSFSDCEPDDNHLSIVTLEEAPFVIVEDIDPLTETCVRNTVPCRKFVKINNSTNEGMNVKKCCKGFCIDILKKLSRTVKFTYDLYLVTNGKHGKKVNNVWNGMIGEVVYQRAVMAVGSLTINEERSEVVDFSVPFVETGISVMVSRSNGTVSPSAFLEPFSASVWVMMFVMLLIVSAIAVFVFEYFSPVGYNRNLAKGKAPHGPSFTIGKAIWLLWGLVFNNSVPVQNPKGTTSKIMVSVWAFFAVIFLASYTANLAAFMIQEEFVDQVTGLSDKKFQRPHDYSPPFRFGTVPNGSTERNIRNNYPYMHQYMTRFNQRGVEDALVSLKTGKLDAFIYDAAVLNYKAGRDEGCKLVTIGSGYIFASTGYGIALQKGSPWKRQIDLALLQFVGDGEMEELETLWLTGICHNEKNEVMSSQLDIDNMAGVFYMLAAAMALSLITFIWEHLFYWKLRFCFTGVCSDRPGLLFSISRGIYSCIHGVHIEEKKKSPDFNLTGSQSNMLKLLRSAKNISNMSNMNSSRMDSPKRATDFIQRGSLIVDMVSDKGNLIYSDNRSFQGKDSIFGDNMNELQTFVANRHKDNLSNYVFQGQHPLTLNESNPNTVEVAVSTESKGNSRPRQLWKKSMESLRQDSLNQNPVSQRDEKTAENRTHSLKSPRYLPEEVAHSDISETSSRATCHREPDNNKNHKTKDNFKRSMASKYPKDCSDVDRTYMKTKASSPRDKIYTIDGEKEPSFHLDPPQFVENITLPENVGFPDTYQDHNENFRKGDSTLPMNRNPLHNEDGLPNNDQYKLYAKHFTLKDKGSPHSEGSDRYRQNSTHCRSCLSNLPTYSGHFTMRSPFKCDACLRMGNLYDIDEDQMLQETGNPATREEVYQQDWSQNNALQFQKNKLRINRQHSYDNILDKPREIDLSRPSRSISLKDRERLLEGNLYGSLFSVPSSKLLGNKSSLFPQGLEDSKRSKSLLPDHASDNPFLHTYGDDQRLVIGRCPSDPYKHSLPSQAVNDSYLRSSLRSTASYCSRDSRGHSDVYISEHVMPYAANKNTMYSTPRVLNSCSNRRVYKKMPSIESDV

inhibition of GluN1/GluN2B-DeltaNTD ([1]; 1 µM trans-OptoNAM-3 (dark), calculated from the dose-response curve): 2.150%
IC50 ([1]; 365 nm PSS, read-out: IC50 on GluN1/GluN2B-ΔNTD receptors pre-illuminated with 365 nm): 25 ± 6 µM
Relative current (IOpto/I0) ([1]; OptoNAM-3 365 nm PSS, [OptoNAM-3] 0.3 µM): 0.952
Relative current (IOpto/I0) ([1]; OptoNAM-3 365 nm PSS, [OptoNAM-3] 2 µM): 0.900
Relative current (IOpto/I0) ([1]; OptoNAM-3 365 nm PSS, [OptoNAM-3] 5 µM): 0.779
Relative current (IOpto/I0) ([1]; OptoNAM-3 365 nm PSS, [OptoNAM-3] 20 µM): 0.661
Relative current (IOpto/I0) ([1]; OptoNAM-3 365 nm PSS, [OptoNAM-3] 30 µM): 0.421
Relative current (IOpto/I0) ([1]; OptoNAM-3 365 nm PSS, [OptoNAM-3] 67 µM): 0.119
Relative current (IOpto/I0) ([1]; OptoNAM-3 dark PSS (trans), [OptoNAM-3] 0.3 µM): 0.969
Relative current (IOpto/I0) ([1]; OptoNAM-3 dark PSS (trans), [OptoNAM-3] 2 µM): 0.866
Relative current (IOpto/I0) ([1]; OptoNAM-3 dark PSS (trans), [OptoNAM-3] 5 µM): 0.809
Relative current (IOpto/I0) ([1]; OptoNAM-3 dark PSS (trans), [OptoNAM-3] 20 µM): 0.542
Relative current (IOpto/I0) ([1]; OptoNAM-3 dark PSS (trans), [OptoNAM-3] 30 µM): 0.365
Relative current (IOpto/I0) ([1]; OptoNAM-3 dark PSS (trans), [OptoNAM-3] 67 µM): 0.033
shift in IC50 between wt and GluN1/GluN2B-ΔNTD receptors ([1]; dark): 100 fold
IC50 ([1]; dark, read-out: IC50 on GluN1/GluN2B-ΔNTD receptors in the dark): 20 ± 4 µM
inhibition of GluN1/GluN2A (GluN1/GluN2A): 2.7% ± 0.5%
Compound: c1ccc(/N=N/c2ccc(CCNc3ccncc3)cc2)cc1 [OptoNAM-3, (E)-N-(4-(Phenyldiazenyl)phenethyl)pyridin-4-amine]
